Reference: ChEMBL document CHEMBL1159303, “Isolation and structure determination of obyanamide, a novel cytotoxic cyclic depsipeptide from the marine cyanobacterium Lyngbya confervoides” (J Nat Prod, 2002)
In brackets after ≈: the same amount, converted by molar mass.

What was measured:
[1] = test system: KB; test: Cytotoxicity against human KB cells; type: functional, cell-based
[2] = test system: LoVo; test: Cytotoxicity against human LoVo cells; type: functional, cell-based

Q: Which results are given for `CC[C@H]1CC(=O)O[C@@H](C)C(=O)N(C)[C@@H](C(C)C)C(=O)N(C)[C@@H](Cc2ccccc2)C(=O)N[C@@H](C)c2nc(cs2)C(=O)N1` [OBYANAMIDE]?
A: IC50 [1]: 0.58 µg/mL (≈ 0.967 µM); IC50 [2]: 3.14 µg/mL (≈ 5.24 µM)
